Here are results for 2 molecules from patent publication US7855232B2, “Organoselenium compound for cancer chemoprevention” (LKT Laboratories, Inc., priority 2001, dated 2010).

Marks after values point to notes of the source that are not given here.

Data set [1] deals with Glutathione S-Transferase. Put plainly: Glutathione S-transferase (GST) activity in tissue cytosol of treated mice, CDNB substrate. In kind it is in vivo, Female A/J mice. The note with it: for Ratio Test/con (GST): gavage; for GST act.: gavage in corn oil. How it is done: The activity of cytosolic was assayed according to the method of Habig et al. using 1-chloro-2,4-dinitrobenzene (CDNB) as the substrate. Habig et al, J. Biol. Chem. 249:7130-7139 (1974). The complete solution contains, in a total volume of 2.0 mL, 0.1 M phosphate buffer, pH 6.5, 5 mM glutathione, 1 mM CDNB, and 20 μL of the cytosol. The reaction was monitored at 340 nm in a Beckman Model DU65 UV-VIS spectrophotometer. Assays were performed at 30° C. Complete assay mixture without the cytosolic enzyme was used as the reference blank. Data as analyzed by the Student's “t” test and P values were obtained in comparison to the control.

The subject of the next data set is GSH. Nature of the data set: Glutathione (GSH) concentration in tissues of treated mice, HPLC. In kind it is in vivo, Female A/J mice. The following applies: for Ratio Test/con (GSH): gavage; for GSH conc.: gavage in corn oil. The protocol:
GSH was quantitated by modification of the procedure Siller-Cepeda et al. Plant Cell Physiol. 32:1179-1185 (1991). Aliquots of tissue homogenates were mixed with equal volumes of 20% PCA containing 2 mM BPDS. Vortex, centrifuge at 7800×g for 15 minutes at 4° C. and 250 μl supernatant transferred into a microfuge tube containing 25 μl of γ-glu-glu as internal standard. The samples were carboxymethylated with 25 μl of 100 mM iodoacetic acid dissolved in 0.2 mM m-cresol purple sodium salt solution. The pH of the solution was adjusted to 9-10 by adding 350 μl of KOH (2M)-KHCO3 (2.4 M) mixture and incubated in the dark for 15 minutes. After carboxymethylation, the samples were derivatized with 500 μl of 1% dinitrofluorobenzene (DNFB) and kept in the dark at 4° C. overnight. The samples were centrifuged at 13,000×g for 15 minutes, filtered through 0.2 μm filter, and were analyzed with a SHIMADZU two-pump gradient HPLC system. Samples were injected by a SHIMADZU SIL-10AV Autoinjector onto a Varian 3-aminopropyl MICROSORB-MV column (4.6×250 mm) operated at ambient temperature with a flow rate of 1 ml/min. Absorbance of the dinitrophenyl derivatives was monitored at 365 nm. The amount of GSH was calculated from a standard curve using γ-glu-glu as internal standard.

For data set [2], the system named is UDP-Glucuronosyltransferase (UDP-GT). Nature of the data set: UDP-glucuronosyltransferase (UDP-GT) activity in liver microsomes of treated mice, o-aminophenol substrate. In kind it is in vivo, Female A/J mice. The note with it: for Ratio Test/con (UDP-GT): gavage; for UDP-GT activity (column head prints GSH conc.): gavage in corn oil. The protocol:
Microsomal samples were assayed for enzymatic conjugation by modifying the procedure of Zakim et al., Methods of Biochemical Analysis, ed. David Glick, 21:1-37, (1973). using o-aminophenol as the substrate. The complete assay solution contains, in a total volume of 500 μl, 0.25 M phosphate buffer (pH 7.6), 0.002 M o-aminophenol, 0.05 M UDPGA, 0.125 M magnesium chloride and 100 μl microsomes. The mixture was incubated for 30 minutes. Reactions were stopped by the addition of 500 μl of TCA-sodium phosphate reagent. The precipitated protein was removed, 100 μl of 0.05% sodium nitrite was added to 950 μl of the supernatent solution and allowed to stand for 5 minutes. 100 μl of 0.5% ammonium sulfamate was added, after 5 minutes. 100 μl of 0.12% N-(-1-naphthyl)ethylenediamine dihydrochloride was added and incubated for 2 hours in the dark; and the difference in the optical density between the blanks and the samples were recorded at 555 nm in a Beckman model DU65 UV-VIS spectrophotometer. The UDP-GT activity was calculated using the extinction coefficient 29 mM-1 cm-1 for the coupled product.
In general terms: Liver microsomes are a subcellular fraction often used to study metabolism.

A further data set concerns aberrant crypts (AC). Put plainly: Inhibition of DMH-induced aberrant crypt (AC) formation in colon. The note with it: high dose 0.04 mmol/kg body weight, gavage, without DMH. In kind it is in vivo, Female CF1 mice. From the text:
Precancerous lesions called aberrant crypts (AC) are used as a marker for colon carcinogenesis. Mice and rats, when exposed to colon-specific carcinogen, develop preneoplastic changes in colon crypts which leads to malignancy through dysplasia-carcinoma sequence. […] McLellan et al., Cancer Res. 48:6183-6186 (1988); McLellan et al., Cancer Res. 48:2311-2315 (1988).
The effect of colon-specific carcinogenesis is typically seen in the induction of AC formation in less than two weeks. AC formation is dose dependent and can be quantitated without elaborate instrumentation. In view of the short time-frame required to get quantifiable results, this bio-assay is a useful prescreening tool for the evaluation of chemopreventative efficacy of compounds that are effective against colon cancer. The protocol for aberrant crypts is shown below:
Female CF1 mice, 3 weeks of age, were purchased from Harlan Sprague-Dawley, Indianapolis, 1N. They were housed, 5 mice per cage, in temperature and humidity-controlled animal quarters with 12 hours light/dark cycle and fed AIN 76A semipurified diet until the ent of the experiment. Water was given ad libitim. The animals were separated into experimental and control groups. The test compounds 0.03-0.04 mmol/kg body weight dissolved in 0.3 mL corn oil, were given by gavage one per day for 8 days. One hour after the inhibitors administration on the 4th and 8th days, 0.4 mg of DMH in 0.2 mL of 0.001 M EDTA, adjusted to pH 6.5 with sodium bicarbonate, was given by gavage. Starting on the 9th day, the inhibitors were given once every other day for an additional 3 weeks. This regimen of inhibitor administration ensures the coverage both the initiation and post initiation periods of carcinogen exposure.
At the end of the 3 week period, the animals were sacrificed and the colons removed. The starting and terminating weights of the animals were recorded. The procedures for the determination of aberrant crypts were those reported by Bird (Cancer Letters 37:147-151 (1987)). The mouse colon including the caecum was removed, rinsed with PBS, and opened longitudinally. The colon contents was removed by washing with PBS. The colon was spread mucosal side up on a piece of filter paper and fixed in buffered formalin overnight. It was then stained with 0.2% methylene blue in PBS for 60 min. The AC foci was read under light microscope. The AC are topographically distinguished by their increased size, increased pericryptal zone, and thicker and deeply stained epithelial lining compared to normal crypts. The number of foci and AC in the colorectal and caecal parts of the colon were recorded separately. The significance of the data was determined by the analysis of variance method. The significance of the incidence of aberrant crypts bearing animals was analyzed by the X^2 test. The aberrant crypts were examined histologically to verify the dysplastic nature of the changes in animals treated with carcinogens and those treated with carcinogens and inhibitors.

Where [3] appears, read: colon, dose 0.02 mmol/Kg body weight.
Where [4] appears, read: colon, dose 0.04 mmol/Kg body weight.
The mark [5] stands for this setting: forestomach, dose 0.02 mmol/Kg body weight.
Setting [6] is: forestomach, dose 0.04 mmol/Kg body weight.
[7] abbreviates: liver, dose 0.02 mmol/Kg body weight.
Setting [8] is: liver, dose 0.04 mmol/Kg body weight.
[9] abbreviates: lung, dose 0.02 mmol/Kg body weight.
Where [10] appears, read: lung, dose 0.04 mmol/Kg body weight.
Setting [11] is: small intestinal mucosa, dose 0.02 mmol/Kg body weight.
The mark [12] stands for this setting: small intestinal mucosa, dose 0.04 mmol/Kg body weight.

As usually defined, the melting point is the temperature of the solid-liquid transition. Turning to `N#C[Se]C([Se]C#N)c1cccs1` [(1) TMSC, 2-thienyl methylene selenocyanate], the melting point was 48 to 50 °C.
Regarding `[Se]=C=NCc1ccc(CN=C=[Se])s1` [(6) TDMISC, thienyl-2,5-di-methylene isoselenocyanate], the “Ratio Test/con (GST)” value is 1.12 in data set [1] (setting [3]); 1.14 in data set [1] (setting [4]); 0.93 in data set [1] (setting [5]); 1.11 in data set [1] (setting [6]); 1.90 in data set [1] (setting [7]); 2.53 in data set [1] (setting [8]). The “Ratio Test/con (GST)” value is on record as 1.29 in data set [1] (setting [9]), 1.73 in data set [1] (setting [10]), 2.45 in data set [1] (setting [11]) and 2.41 in data set [1] (setting [12]). Besides, the GST act. in data set [1] (setting [3]) was 0.73 ± 0.026 ^g μmol/min mg protein; in data set [1] (setting [4]), 0.74 ± 0.04 ^f μmol/min mg protein; in data set [1] (setting [5]), 1.03 ± 0.20 μmol/min mg protein; in data set [1] (setting [6]) it was 1.23 ± 0.35 μmol/min mg protein; in data set [1] (setting [7]), 2.43 ± 0.46 ^e μmol/min mg protein; in data set [1] (setting [8]) it was 3.24 ± 0.39 ^e μmol/min mg protein. For the same molecule, the GST act. in data set [1] (setting [9]) is reported as 0.44 ± 0.04 ^f μmol/min mg protein; in data set [1] (setting [10]), 0.59 ± 0.29 μmol/min mg protein; in data set [1] (setting [11]) it was 0.54 ± 0.11 ^e μmol/min mg protein; in data set [1] (setting [12]), 0.53 ± 0.03 ^c μmol/min mg protein. Further, the “Ratio Test/con (GSH)” value in the data set with GSH (setting [7]) stood at 0.95; with GSH (setting [8]), 1.49; with GSH (setting [11]), 1.07; in the data set on GSH (setting [12]), 1.76. The GSH conc. was 3.38 ± 1.11 μmol/gm tissue weight in the data set with GSH (setting [7]), 5.29 ± 1.09 μmol/gm tissue weight in the data set with GSH (setting [8]), 2.26 ± 1.87 μmol/gm tissue weight with GSH (setting [11]) and 3.71 ± 0.31^d μmol/gm tissue weight with GSH (setting [12]). In addition, the “Ratio Test/con (UDP-GT)” value in data set [2] (dose 0.02 mmol/Kg body weight) came out at 1.50; in data set [2] (dose 0.04 mmol/Kg body weight), 1.49. Besides, the “UDP-GT activity (column head prints GSH conc.)” value in data set [2] (dose 0.02 mmol/Kg body weight) is recorded as 6.08 ± 0.76 ^d nmol/min/mg protein; in data set [2] (dose 0.04 mmol/Kg body weight), 7.98 ± 2.49 nmol/min/mg protein. Also, in the data set on aberrant crypts (AC), the “% animals” value stood at 0.0%. The molecule also returned an AC/Colon in the data set with aberrant crypts (AC) of 0.00. Further, the AC/Foci with aberrant crypts (AC) was determined as 0.00. The ACF/Colon with aberrant crypts (AC) amounted to 0.00. The “Total AC” value in the data set on aberrant crypts (AC) is 0. In the data set on aberrant crypts (AC), the “Total ACF” value was 0.
